Assays:
[1] = test system: rabbit corpus cavernosum smooth muscle; experiment: Rabbit corpus cavernosum smooth muscle relaxation, organ bath; type: cell-based
Description: (§1) Disruption of endothelium The endothelium lining the lacunar spaces of rabbit corpus cavernosum was disrupted and/or removed by detergent treatment using a modification of a protocol for blood vessels, described elsewhere (kim N. et al., J. Clin. Invest., 88, 112–118, 1991). The intact, isolated penis was placed in a tray containing chilled physiological salt solution (PSS). A 21-guage minicatheter was inserted into each corporal body at the proximal end of the penis. A third minicatheter was inserted into the distal end, below the glans penis, where the right and left corpora communicate. While the distal and one proximal minicatheter were clamped, 3 ml of CHAPS (wt vol.^−) in saline was infused into the remaining proximal catheter. After a short interval (˜20 s), the clamped minicatheters were opened and the preparation was washed by infusion of saline. The corpora cavernosa were then removed and tested for endothelial integrity.
Tissue procurement and organ bath experiments Male rabbits were killed with pentobarbital and their penises excised rapidly and cut longitudinally into equal strips to give 3–6 segments. These segments were incubated in Kerbs-bicarbontate solution (NaCl, 118 mM; NaHCO3, 25 mM; KCl, 4.7 mM; KH2PO4, 1.2 mM; MgSO4, 1.2 mM; glucose, 11 mM; CaCl2, 2.5 mM; pH 7.3–7.4) maintained at 37° C. and aerated with 95% O2 and 5% CO2. Isometric tension was recorded with a force displacement transducer (UGO BASILE, Model 7004, Italy). Rabbit corpus cavernosum smooth muscles were stretched to a resting tension of 2 g and then contracted with phenylephrine (PE, 10 μM). Tissues were also treated with guanethidine (10 μM) to block contractions caused by noradrenaline, released from adrenergic neuron, and treated with atropine (1 μM) to prevent muscarinic effects caused by acetylcholine. When the stable constriction to phenylephrine was reached, concentration-response curves to KMUP-1 (0.001–10 μM) were constructed. Data were expressed as a percentage of the maximum contractile response to phenylephrine. To examine the possible action mechanisms of KMUP-1, the rabbit corpus cavernosum smooth muscles were pretreated with sGC (soluble guanylyl cyclase) inhibitors ODQ (1 μM), a NOS (nitric oxide synthase) inhibitor L-NAME (100 μM), a K^+ channel blocker Tetraethylammonium (TEA, 10 mM), a KATP channel blocker glibenclamide (1 μM), a voltage-dependent K^+ channel blocker 4-AP (100 μM) and Ca^2+-dpendent K^+ channel blockers apamin (1 μM) and charybdotoxin (0.1 μM) for 30 min prior to the addition of KMUP-1. To observe whether the rabbits corpus cavernosum smooth muscle relaxation of KMUP-1 are affected by a nonselective PDE (phosphodiesterase) inhibitor, we investigated the action of KMUP-1 in the presence of IBMX (0.5 μM). In another experiment, rabbit corpus cavernosum smooth muscles were preconstricted with 60 mM KCl. The KCl solution was prepared by substituting NaCl with KCl (60 mM) in an equimolar amount.
as §1, with “(kim” for “(kim N.”, “al.,” for “al., J. Clin. Invest., 88, 112–118,”, “vol.^−1)” for “vol.^−)”, “integrity. […]” for “integrity.”

[2] = test system: PDE (phosphodiesterase) in human platelets; experiment: Phosphodiesterase assay, soluble PDE from human platelets, cyclic GMP substrate; type: biochemical; details: at 100 μM, n=3
Description: Phosphodiesterase assay. Human platelets were isolated from whole blood using 50 mM Tris-HCl containg 5 mM MgCl2 (pH 7.5) and centrifuged to prepare platelet rich plasma. Washed human platelets were resuspended in 50 mM Tris-HCl containg 5 mM MgCl2 (pH 7.5). Platelets were then disrupted by sonicatio, and soluble PDE preparation was obtained by ultracentrifugation 105000 g for 60 min (4° C). […] After 20 min at 37° C., the samples were heated to 100° C. for 2 min. Ophiophagus Hannah snake venom (10 mg/ml, 10 μl) was then added and incubated at 37 C. for 10 min to convert the 5-GMP to the unchanged nucleosides, guanosine. An ion-exchange resin (200 μl) was added to bind all uncoverted cyclic GMP. After centrifuging, the supernatant was removed for determination in a liquid scintillation counter.

Compound: Cn1c(=O)c2c(ncn2CCN2CCN(c3ccccc3Cl)CC2)n(C)c1=O [KMUP-1, 7-[2-[4-(2-chlorophenyl)piperazinyl]-ethyl]-1,3-dimethylxanthine]
- relaxant activities in rabbit CCSMs [1]: concentration-dependent relaxant activities
- relaxation in endothelium-denuded (EC−) corpus cavernosum smooth muscle ([1]; 0.001–10 μM, endothelium-denuded): concentration-dependent relaxations
- −log EC50 of relaxation ([1]; after K+ channel blocker TEA (10 mM)): 5.37±0.05
- −log EC50 of relaxation ([1]; after KATP channel blocker glibenclamide (1 μM)): 6.57±0.15
- −log EC50 of relaxation ([1]; after NOS inhibitor L-NAME (100 μM)): 6.51±0.08
- −log EC50 of relaxation ([1]; after apamin (1 μM)): 5.85±0.11
- −log EC50 of relaxation ([1]; after charybdotoxin (0.1 μM)): 5.63±0.09
- −log EC50 of relaxation ([1]; after sGC inhibitor ODQ (1 μM)): 6.79±0.12
- −log EC50 of relaxation ([1]; after voltage-dependent K+ channel blocker 4-AP (100 μM)): 5.83±0.17
- relaxation of corpus cavernosum smooth muscle strips ([1]; at 10 μM): completely relaxed
- effect of combination with IBMX on CCSMs relaxations ([1]; combination with IBMX): additive effect
- −log EC50 of relaxation ([1]; endothelium-intact (EC+), phenylephrine (10 μM)-precontracted, no blocker): 7.19±0.09
- relaxation in the presence of high K+ ([1]; high K+ (60 mM), 0.001–10 μM): great reduction of relaxation
- −log EC50 of relaxation ([1]; in the presence of IBMX (0.5 μM)): 8.65±0.14
- inhibition of PDE activity [2]: 29±3.1%

— patent US6979687B1, “Theophylline-based soluble guanylyl cyclase activators KMUP-1 analogues enhanced cyclic GMP and K+ channel activities on rabbit corpus cavernosum smooth muscle and intercavernous pressure activities” (Cho-Jan Liang, priority 2002, dated 2005)
